This is an account of results in US5814622A, “Compounds derived from boronic acid” (Adir et Compagnie, priority 1996, dated 1998).

In data set [1] the target is T1, human urokinase (u-PA) (Homo sapiens, UniProt P00749).
T1 construct: purchased Sigma
The data set is described as follows: Inhibition of urokinase (u-PA). The following applies: purified human u-PA 2 nM, substrate <Glu-Gly-Arg-pNA 0.56 mM, 20° C., pH 7.4. Format: biochemical.

The target in data set [2] is plasminogen tissue activator (t-PA) (Homo sapiens, UniProt P00750). Briefly: Inhibition of plasminogen tissue activator (t-PA). Format: biochemical. Conditions: t-PA 2 nM, substrate H-D-Ile-Pro-Arg-pNA 0.48 mM, 20° C., pH 7.4.
Data set [3] deals with platelets. Briefly: Thrombopenic activity after oral administration to dogs. The class given is in vivo. Conditions: dog, 5 mg/kg, 1 hour.
Description: Male or female dogs weighing 11-28 kg are treated orally with the products of the invention (5 mg/kg) or with the reference substance, DUP 714, at a concentration of 2.5 mg/kg. […] The number of platelets is also determined in each sample using a T450 counter (Coultronics).
Under the conditions of our experiments, the number of platelets before the treatment is about 300,000 platelets/μl; the TT is about 19 seconds and the ACT is about 18 seconds.
The subject of data set [4] is plasma from the dogs (TT). The data set is described as follows: TT in dogs after oral administration. The following applies: dog, 5 mg/kg. The class given is in vivo.
Description: (§2) Male or female dogs weighing 11-28 kg are treated orally with the products of the invention (5 mg/kg) or with the reference substance, DUP 714, at a concentration of 2.5 mg/kg. The coagulation times (TT, ACT) are determined in samples of plasma from the dogs 10 min before and 30 min, 1 hour, 2 hours, 4 hours and 6 hours after administration of the products. […] The number of platelets is also determined in each sample using a T450 counter (Coultronics).
(§3) The values show the number of times that the initial time is increased.
Data set [5] deals with human plasma (thrombin time). The data set is described as follows: Anticoagulant activity: thrombin time (TT) in human plasma. The class given is biochemical. Conditions: 37° C., 2 min preincubation. Here is the method: (§1) Anticoagulant activity, measurement of the thrombin time and the activated cephalin time in man In order to evaluate the anticoagulant activity of the compounds of the invention, the thrombin time (TT) and the activated cephalin time (ACT) were determined in samples of human plasma. An ST4 coagulometer (Diagnostica Stago, France) was used. […] The TT is determined with the Thrombin Prest reagent and the ACT with the Automat […] reagent. The inhibitor or the solvent (10 μl) is added to the plasma (90 μl), then the mixture is incubated for 2 minutes at 37° C. 100 μl of Thrombin […]) or of Automat […]) are added while starting the chronometer. […] The activity of an antagonist is evaluated by its capacity to prolong the TT and the ACT relative to the control.

Data set [6] concerns plasma from the dogs (ACT). Briefly: ACT in dogs after oral administration. Format: in vivo. Conditions: dog, 5 mg/kg.
Description: as §2, §3
In data set [7] the target is T2, Plasmin (Homo sapiens, UniProt P00747).
T2 construct: Products Thrombin Plasmin t-PA u-PA; purchased Stage [sic]
The data set is described as follows: Inhibition of plasmin. The class given is biochemical. Conditions: purified human plasmin 2 nM, substrate <Glu-Phe-Lys-pNA 0.05 mM, 20° C., pH 7.4.

Data set [8] relates to human plasma (activated cephalin time). The data set is described as follows: Anticoagulant activity: activated cephalin time (ACT) in human plasma. The following applies: 37° C., 2 min preincubation. The class given is biochemical. The method, then: as §1
The target in data set [9] is T3, human thrombin (Homo sapiens, UniProt P00734).
T3 construct: human thrombin (Sigma, specific activity 3230 UNIH/mg); purchased Sigma
The data set is described as follows: Inhibition of human thrombin (fibrinogen to fibrin). The class given is biochemical. The following applies: human thrombin 0.7 nM, purified human fibrinogen, 20° C., pH 7.4.

Data set [10] relates to thrombin. The following applies: prior knowledge; cited from earlier work.

Sequence of plasminogen tissue activator (t-PA) (P00750 23-562 limits assumed): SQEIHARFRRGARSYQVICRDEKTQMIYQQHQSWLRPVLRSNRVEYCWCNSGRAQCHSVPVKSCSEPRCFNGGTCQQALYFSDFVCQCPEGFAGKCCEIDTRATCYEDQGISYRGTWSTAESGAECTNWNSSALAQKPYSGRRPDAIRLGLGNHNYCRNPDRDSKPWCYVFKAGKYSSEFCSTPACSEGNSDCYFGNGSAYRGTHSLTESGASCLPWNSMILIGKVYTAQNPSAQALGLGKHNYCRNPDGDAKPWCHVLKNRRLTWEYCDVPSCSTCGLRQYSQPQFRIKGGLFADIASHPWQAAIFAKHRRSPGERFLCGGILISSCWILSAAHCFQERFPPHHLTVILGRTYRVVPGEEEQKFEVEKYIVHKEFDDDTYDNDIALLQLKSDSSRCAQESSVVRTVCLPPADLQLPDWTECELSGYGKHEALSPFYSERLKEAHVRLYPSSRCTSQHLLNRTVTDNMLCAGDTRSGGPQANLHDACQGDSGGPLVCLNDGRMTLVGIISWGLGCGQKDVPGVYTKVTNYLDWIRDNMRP
T2 sequence (P00747 581-810 limits assumed): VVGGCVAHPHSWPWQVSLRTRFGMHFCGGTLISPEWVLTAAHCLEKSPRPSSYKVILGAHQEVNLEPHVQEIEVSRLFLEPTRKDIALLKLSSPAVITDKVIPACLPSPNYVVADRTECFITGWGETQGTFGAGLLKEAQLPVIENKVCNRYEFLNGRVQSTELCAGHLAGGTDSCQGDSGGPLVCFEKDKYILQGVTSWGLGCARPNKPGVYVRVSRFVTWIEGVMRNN
T2 sequence (P00747 97-580 partner limits assumed): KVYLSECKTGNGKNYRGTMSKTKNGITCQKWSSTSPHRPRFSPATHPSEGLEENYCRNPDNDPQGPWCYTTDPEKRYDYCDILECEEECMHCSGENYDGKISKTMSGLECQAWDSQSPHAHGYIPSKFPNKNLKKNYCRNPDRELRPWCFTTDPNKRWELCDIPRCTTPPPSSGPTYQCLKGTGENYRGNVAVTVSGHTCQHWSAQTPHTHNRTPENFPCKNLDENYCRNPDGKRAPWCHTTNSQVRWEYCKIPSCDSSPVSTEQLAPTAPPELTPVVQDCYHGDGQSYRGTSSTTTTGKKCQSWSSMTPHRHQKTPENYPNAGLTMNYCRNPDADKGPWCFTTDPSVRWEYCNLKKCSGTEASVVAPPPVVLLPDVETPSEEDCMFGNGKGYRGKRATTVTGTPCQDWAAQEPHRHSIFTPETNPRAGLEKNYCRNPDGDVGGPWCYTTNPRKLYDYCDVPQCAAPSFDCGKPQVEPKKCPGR

The term IC50 denotes the concentration at which inhibition is half-maximal. Lower therefore signals inhibition by little substance. With `COC12CCC(c3ccc(C(=O)N[C@@H](CCCNC(=N)N)B(O)O)cc3)(CC1)CC2.Cl` [Ex. 3, 1-(R)-[4-(4-Methoxybicyclo[2.2.2]oct-1-yl)benzoylamino]-4-guanidinobutylboronic acid hydrochloride], the half-maximal inhibitory concentration (IC50) in data set [1] is more than 33000 nM; in [2], 810 nM; in [7], 1960 nM; in data set [9], 9.3 nM. Besides, in data set [3], the “Thrombopenias observed 1 hour after oral administration to dogs” value (from here on “Thrombopenias observed 1 hour”) is 0%. In [4], the “Increase in TT (number of times that the initial time is increased), 1 hour” value (“Increase in TT … 1 hour” below) is on record as 16 times. In data set [4], the “Increase in TT (number of times that the initial time is increased), 4 hours” value (“Increase in TT … 4 hours” for short) was determined as 12 times. The “TT Ctt2 (concentration which multiplies the coagulation time by 2)” value (shortened to “TT Ctt2”) in data set [5] was determined as 0.32 µM. Further, in data set [6], the “Increase in ACT (number of times that the initial time is increased), 1 hour” value (shortened to “Increase in ACT … 1 hour”) was 19 times. The “Increase in ACT (number of times that the initial time is increased), 4 hours” value (“Increase in ACT … 4 hours” below) in data set [6] amounted to 14 times. Besides, in [8], the “ACT Ctt2 (concentration which multiplies the coagulation time by 2)” value (shortened to “ACT Ctt2”) stood at 1.25 µM.
Regarding `Cl.N=C(N)NCCC[C@H](NC(=O)c1ccc(C23CCC(Cl)(CC2)CC3)cc1)B(O)O` [Ex. 6, 1-(R)-[4-(4-Chlorobicyclo[2.2.2]oct-1-yl)benzoylamino]-4-guanidinobutylboronic acid hydrochloride], the IC50 in data set [1] came to 30000 nM; in data set [2] it was 290 nM; in data set [7] it was 2040 nM; in data set [9], 9.7 nM. Besides, the “Thrombopenias observed 1 hour” value in data set [3] is 0%. The “Increase in TT … 1 hour” value in [4] was 30 times. The “Increase in TT … 4 hours” value in data set [4] is reported as 10 times. Besides, the “TT Ctt2” value in data set [5] turned out to be 0.75 µM. For the same compound, the “Increase in ACT … 1 hour” value in data set [6] is 4 times. Moreover, the “Increase in ACT … 4 hours” value in data set [6] is 2 times. Besides, in data set [8], the “ACT Ctt2” value amounted to 3.13 µM.
As for `Cl.N=C(N)NCCC[C@H](NC(=O)c1ccc(C23CCC(O)(CC2)CC3)cc1)B(O)O` [Ex. 12, 1-(R)-[4-(4-Hydroxybicyclo[2.2.2]oct-1-yl)benzoylamino]-4-guanidinobutylboronic acid hydrochloride], the IC50 in data set [1] is 15400 nM; in [2], 93 nM; in [7], 2100 nM; in [9], 6.6 nM. Also, the “Thrombopenias observed 1 hour” value in data set [3] is given as 40%. Also, the “Increase in TT … 1 hour” value in [4] stood at 24 times. For the same compound, the “Increase in TT … 4 hours” value in data set [4] worked out at 19 times. In [5], the “TT Ctt2” value stood at 0.18 µM. Besides, the “Increase in ACT … 1 hour” value in data set [6] was more than 30 times. The “Increase in ACT … 4 hours” value in [6] is given as more than 30 times. Besides, in [8], the “ACT Ctt2” value is 0.78 µM.
On to `N=C(N)NCCC[C@H](NC(=O)C1(C(=O)NCc2ccccc2)CCCC1)B(O)O.O=S(=O)(O)c1ccccc1` [Ex. 22, 1-(R)-(1-Benzylaminocarbonylcyclopentanecarboxamido)-4-guanidinobutylboronic acid benzenesulfonate], for which the IC50 was 780 nM in data set [1], 1350 nM in data set [2], 8630 nM in data set [7] and 4.9 nM in data set [9]. Further, in data set [3], the “Thrombopenias observed 1 hour” value was found to be 0%. In addition, the “Increase in TT … 1 hour” value in [4] was found to be 20 times. Also, the “Increase in TT … 4 hours” value in [4] was 8 times. In addition, the “TT Ctt2” value in data set [5] amounted to 0.30 µM. Moreover, the “Increase in ACT … 1 hour” value in [6] worked out at 6 times. In data set [6], the “Increase in ACT … 4 hours” value worked out at 2 times. The “ACT Ctt2” value in data set [8] was 1.58 µM.
As to `COC12CCC(c3cccc(C(=O)N[C@@H](CCCNC(=N)N)B(O)O)c3)(CC1)CC2.Cl` [Ex. 51, 1-(R)-[3-(4-Methoxybicyclo[2.2.2]oct-1-yl)benzoylamino]-4-guanidinobutylboronic acid hydrochloride], the IC50 in [1] came to 5610 nM; in data set [2], 1540 nM; in [7], 531 nM; in data set [9] it was 2.7 nM. Also, the “Thrombopenias observed 1 hour” value in data set [3] is 0%. For the same compound, the “Increase in TT … 1 hour” value in data set [4] is 22 times. The “Increase in TT … 4 hours” value in [4] worked out at 19 times. For the same compound, the “TT Ctt2” value in [5] was 0.15 µM. Besides, in data set [6], the “Increase in ACT … 1 hour” value is listed as 3 times. Further, in data set [6], the “Increase in ACT … 4 hours” value worked out at 2 times. For the same compound, in data set [8], the “ACT Ctt2” value was found to be 0.84 µM.
As to `Cl.N=C(N)NCCC[C@H](NC(=O)c1cccc(C23CCC(O)(CC2)CC3)c1)B(O)O` [Ex. 69, 1-(R)-[3-(4-Hydroxybicyclo[2.2.2]oct-1yl)benzoylamino]-4-guanidinobutylboronic acid hydrochloride], the IC50 in [1] was more than 33000 nM; in [2], 709 nM; in [7], 692 nM; in data set [9] it was 6.5 nM. Also, the “Thrombopenias observed 1 hour” value in data set [3] was found to be 0%. Besides, the “Increase in TT … 1 hour” value in data set [4] was determined as 18 times. For the same compound, in data set [4], the “Increase in TT … 4 hours” value was determined as 15 times. In data set [5], the “TT Ctt2” value worked out at 0.17 µM. For the same compound, the “Increase in ACT … 1 hour” value in [6] was 4 times. The “Increase in ACT … 4 hours” value in data set [6] worked out at 3 times. In data set [8], the “ACT Ctt2” value was determined as 0.56 µM.
As to `N=C(N)NCCC[C@H](NC(=O)C1(C(=O)NCCc2ccccc2)CCCC1)B(O)O.O=S(=O)(O)c1ccccc1` [Ex. 83, 1-(R)-(1-Phenethylaminocarbonylcyclopentanecarboxamido)-4-guanidinobutylboronic acid benzenesulfonate], the half-maximal inhibitory concentration (IC50) was 1200 nM in [1], 1560 nM in data set [2], 6880 nM in data set [7] and 2.4 nM in [9]. In addition, in data set [3], the “Thrombopenias observed 1 hour” value was 0%. Besides, in data set [4], the “Increase in TT … 1 hour” value is on record as more than 30 times. Moreover, the “Increase in TT … 4 hours” value in [4] was determined as 18 times. In [5], the “TT Ctt2” value came out at 0.13 µM. Moreover, in data set [6], the “Increase in ACT … 1 hour” value was 7 times. In data set [6], the “Increase in ACT … 4 hours” value turned out to be 4 times. In addition, in data set [8], the “ACT Ctt2” value stood at 0.56 µM.
Consider `COc1cccc(CCNC(=O)C2(C(=O)N[C@@H](CCCNC(=N)N)B(O)O)CCCC2)c1.O=S(=O)(O)c1ccccc1` [Ex. 94, 1-(R)-[1-(3-Methoxyphenethylaminocarbonyl)cyclopentanecarboxamido]-4-guanidinobutylboronic acid benzenesulfonate], for which the IC50 in data set [1] was 1000 nM; in [2], 1410 nM; in data set [7] it was 4060 nM; in data set [9] it was 3.9 nM. Besides, the “Thrombopenias observed 1 hour” value in [3] is given as 0%. Besides, the “Increase in TT … 1 hour” value in data set [4] was found to be 17 times. In addition, the “Increase in TT … 4 hours” value in data set [4] is 21 times. Moreover, in data set [5], the “TT Ctt2” value was 0.32 µM. The “Increase in ACT … 1 hour” value in data set [6] was determined as 9 times. The “Increase in ACT … 4 hours” value in data set [6] is 4 times. The “ACT Ctt2” value in [8] was determined as 1.77 µM.
On to `COc1ccc(CCNC(=O)C2(C(=O)N[C@@H](CCCNC(=N)N)B(O)O)CCCC2)cc1OC` [Ex. 103, 1-(R)-[1-(3,4-Dimethoxyphenethylaminocarbonyl)cyclopentanecarboxamido]-4-guanidinoboronic acid benzensulfonate], for which the IC50 in [1] is 1020 nM; in data set [2] it was 1440 nM; in data set [7] it was 3280 nM; in data set [9] it was 4 nM. In data set [3], the “Thrombopenias observed 1 hour” value amounted to 0%. Besides, the “Increase in TT … 1 hour” value in data set [4] is on record as more than 30 times. Further, the “Increase in TT … 4 hours” value in [4] was found to be 24 times. The “TT Ctt2” value in data set [5] turned out to be 0.29 µM. In addition, the “Increase in ACT … 1 hour” value in data set [6] turned out to be 6 times. Also, the “Increase in ACT … 4 hours” value in [6] was found to be 4 times. Further, the “ACT Ctt2” value in [8] came to 1.67 µM.
Turning to hirudin, in data set [10], the “activity via the oral route, in words” value was “not being active via the oral route”.
For the compound “hirulog-1: Direct inhibitors of thrombin, currently in clinical development [reference compound]”, in data set [10], the “activity via the oral route, in words” value was “not being active via the oral route”.
